In US20090107495A1, “DEVICE FOR INHALATION OF MEDICINE” (NATIONAL INSTITUTE FOR MATERIALS SCIENCE, priority 2005, published 2009):

Columns and labels:
Type in all cases: physicochemical
Solubility in ethanol = assay: Solubility in ethanol
[1] = Exposure of the cotton mat to air stream similar to human inspiration, SEM picture after exposure
Experimental: The cotton mat where the matrix comprising the nano fiber of PVP in which creatine particles were adhered on the surface was formed on the surface was exposed for 1 minute in air stream having the similar degree as human inspiration (velocity is 5 L/minute). A picture of the cotton mat after exposure taken under a scanning electron microscope (the same one as mentioned already) is shown in FIG. 2.

[2] = Particle size of creatine adhered on PVP nano fiber, by scanning electron microscope; conditions: SEM, FIG. 1
Source text: A commercially available electrospinning apparatus (HSP-30K-2 manufactured by Nippon Stabilizer Industry Co., Ltd.) was used, voltage (direct current of 15 kV) was applied between (the distance being 20 cm) a nozzle and an aluminum foil (manufactured by Mitsubishi Aluminum Company, Ltd.) on which a cotton mat (manufactured by Asahi Kasei Corporation) is placed attached to a collector of the apparatus and a 10 wt % ethanolic solution of polyvinylpyrrolidone (PVP) was sprayed at ambient temperature from the nozzle onto the cotton mat to form a matrix comprising a nano fiber of PVP on the surface of the cotton mat. A fiber diameter of the nano fiber of PVP constituting the matrix was measured by using a scanning electron microscope (SEM JSM-5400 manufactured by JOEL Ltd.) and found to be from 300 to 700 nm. The cotton mat where a matrix comprising a nano fiber of PVP was formed on the surface was attached onto a filter of a commercially available spray-drying apparatus (Buchi Mini Spray Drier B-290 manufactured by Nihon BUCHI K.K.) and a 1 wt % aqueous solution of creatine was spray-dried onto the matrix (outlet temperature of the nozzle: 180° C.; aspirator speed: 35%; pump speed: 5%) to give a cotton mat where a matrix comprising a nano fiber of PVP in which creatine particles were adhered on the surface was formed on the surface. As will be apparent from FIG. 1, the particle size of creatine adhered on the surface of the nano fiber of PVP was about 2 μm at the largest and many of the particles were in a size of from 100 nm to smaller than 1 μm.

[3] = spray-dried onto PVP nano fiber matrix on cotton mat

| Compound | solubility in ethanol (Solubility in ethanol) | stability of nano- to micron-size particles in air ([1]; adhered on PVP nano fiber matrix, no dispersing solvent) | detachment of particles adhered on the nano fiber of PVP ([1]; air stream 5 L/minute, 1 minute, SEM, FIG. 2) | particle size of creatine adhered on the surface of the nano fiber of PVP, at the largest ([2]; spray-dried from 1 wt % aqueous solution onto PVP nano fiber matrix on cotton mat) | particle size, many of the particles, lower limit [2, 3] | particle size, many of the particles, upper limit [2, 3] |
| --- | --- | --- | --- | --- | --- | --- |
| O=c1c2ccccc2[se]n1-c1ccccc1 [Ebselen, 2-phenyl-1,2-benzoisoselenazol-3-(2H)-one] | hardly soluble |  |  |  |  |  |
| CN(CC(=O)O)C(=N)N [creatine] |  | stably retained even in air | detached by air stream | about 2 μm | ≥ 100 nm | smaller than 1 μm |
